Reference: the METLIN SMRT retention time set (Domingo-Almenara et al. 2019)

Test: gradient 5% acetonitrile 3 min, to 50% in 2 min, to 85% in 15 min, held 3 min, 100 µL/min
Settings: column: Zorbax Extend-C18 2.1 x 50 mm; eluents: water / acetonitrile, 0.1% formic acid
In short: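 Pure standards were analyzed in mixtures of ~100 molecules using HPLC coupled to a quadrupole time-of-flight mass spectrometer, in both positive and negative ionization mode. Separation used a Zorbax Extend-C18 column (2.1 × 50 mm, 1.8 μm) at 100 μL/min, with water and acetonitrile each containing 0.1% formic acid. Dead and dwell volumes were 40 μL and 900 μL, and data were collected over 3 months. Retention time was read from computationally picked adduct peaks, each inspected manually.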

| RP-LC retention time [s] | Structure (SMILES) |
| --- | --- |
| 797 | CCOC(=O)C1CCN(S(=O)(=O)c2cc(-c3c(CC)noc3NC(C)=O)ccc2OC)CC1 |
| 689 | O=C(Nc1ccc2c(c1)OCCO2)C1CCCN(c2cnc3nccnc3c2)C1 (centres undefined) |
| 691 | CCOC(=O)Cc1n[nH]c(CSc2nc3ccccc3s2)n1 |
| 762 | Cc1cnc(C(=O)NC2C[C@H]3CC[C@@H](C2)N3C(=O)CCC2CCCC2)cn1 (some centres undefined) |
| 957 | COc1cc(OC)c(NC(=O)N(C)CCc2noc(COc3ccccc3)n2)cc1Cl |
| 1270 | COc1cccc(-c2nc(-c3ccc(S(=O)(=O)N4CCCCC4)cc3)no2)c1 |
| 895 | CCc1noc(NC(C)=O)c1-c1ccc(OC)c(S(=O)(=O)N2CCN(c3ccccc3)CC2)c1 |
| 561 | Cc1ccc(CN2CCn3c(nn(CC4CC4)c3=O)C2)nc1 |
| 835 | Cc1ccc(C(=O)N(c2ccc(Br)cc2)C2C=CS(=O)(=O)C2)cc1 (centres undefined) |
| 698 | COCCNC(=O)c1nc(Nc2ccc(C)cc2)c2ccccc2n1 |
| 1070 | Cc1ccc(CNC(=O)c2c(C)sc3ncnc(N4CCCCC4)c23)cc1 |
| 702 | Cc1[nH]c(C)c(S(=O)(=O)N2CCC(C(=O)NC3CCCCCC3)CC2)c1C(=O)N1CCCC1 |
| 998 | O=C(Cc1cccc(F)c1)N1CCC2(CC1)Nc1ccccc1-n1cccc12 |
| 667 | CCC(=O)Nc1ccc(-n2cnc(C(=O)N3CCN(c4ccccc4OC)CC3)c2)nc1 |
| 550 | Cc1nc2ccccc2n1Cc1nnc2sc(-c3cccnc3)nn12 |
| 1270 | O=C1CC(c2cc(F)cc(F)c2)Cc2nc(N3CCN(c4ccccc4)CC3)ncc21 (centres undefined) |
| 1110 | CCCN1C(=O)COc2ccc(-c3noc(-c4ccc5cc[nH]c5c4)n3)cc21 |
| 767 | Cc1ccccc1C(=O)N1CCC2(C1)C(=O)N(C)c1ccccc12 (centres undefined) |
| 836 | COc1ccc(CNC(=O)C2(C)Oc3cccnc3N(C(C)C)C2=O)cc1OC (centres undefined) |
| 822 | CCOC(=O)c1c(C)[nH]c(C(=O)N2CCC(CC(=O)NCc3ccc(C)cc3)CC2)c1C |
| 948 | O=C(CN1C(=O)C(C(=O)N2CCCC2)Sc2ccccc21)NCc1ccc(Cl)cc1 (centres undefined) |
| 829 | CC(C)c1ccc(NC(=O)C2CCCN(c3cc(=O)n(C)c(=O)n3C)C2)cc1 (centres undefined) |

| RP-LC retention time [s] | Structure (SMILES) |
| --- | --- |
| 636 | Cc1occc1C(=O)NC1CCc2nn(CC3CC3)c(=O)n2CC1 (centres undefined) |
| 959 | Cc1ccc(-c2noc(C(=O)N3CCCC3)n2)cc1S(=O)(=O)N1CCN(c2ncccn2)CC1 |
| 1150 | Cc1nc(-c2cc(S(=O)(=O)NCc3ccc(OC(C)C)cc3)c(C)s2)sc1C |
| 690 | Cn1nc(C(=O)N2CCCC(c3nnc(-c4ccccc4F)s3)C2)ccc1=O (centres undefined) |
| 565 | Cc1ccnc(Nc2nc(CC(=O)N3CCN(S(C)(=O)=O)CC3)cs2)c1 |
| 926 | O=C(NCCCCCCNC(=O)ON=C1CCCCC1)ON=C1CCCCC1 |
| 589 | Clc1cccc(CNc2cc(-n3ccnc3)ncn2)c1 |
| 624 | O=C(c1ccncc1)N1CCC(n2nc(-c3ccsc3)ccc2=O)CC1 |
| 1340 | CCCCCn1c(=O)c2ccccc2n(Cc2nc(-c3ccc(Cl)cc3)no2)c1=O |
| 1150 | Cc1cc(C)n(-c2ccc(SCc3ccccc3Cl)nn2)n1 |
| 1090 | CC(C)Cc1nc(-c2ccccc2)oc1CC(=O)NCc1cccc(Cl)c1 |
| 1070 | COc1cccc(C2=NN(C(C)=O)C(c3cccc(Br)c3)O2)c1OC(C)=O (centres undefined) |
| 1020 | O=C(CCSc1ccccc1)N1CC(c2nc(-c3cccc(Cl)c3)no2)C1 |
| 755 | Cc1nc(CCNC(=O)C2CCN(S(=O)(=O)c3ccc(Cl)cc3)CC2)cs1 |
| 667 | O=C(Oc1coc(CSc2ncccn2)cc1=O)c1ccco1 |
| 632 | Fc1ccc(-c2nc(-c3ccc4c(c3)ncn4CCN3CCOCC3)no2)cc1 |
| 992 | CCN(CC)C(=O)c1ccccc1NC(=O)c1ccc2c(c1)-c1ccccc1S(=O)(=O)N2CC |
| 813 | CCCCNC(=O)c1ccc2c(c1)N(C)C(=O)C1CCCCN21 (centres undefined) |
| 866 | CCOC(=O)c1c(C)[nH]c(C(=O)N2CCCC(C(=O)NCCc3ccc(OCC)cc3)C2)c1C (centres undefined) |
| 975 | Cc1ccc(CNC(=O)C2CCCN(c3ccc(=O)n(-c4ccc(C)c(Cl)c4)n3)C2)cc1 (centres undefined) |
| 747 | O=C1CC2(CCCC2)CC(=O)N1CCNCC1COc2ccccc2O1 (centres undefined) |
| 745 | Cc1ccc(-n2nnnc2CNC(=O)c2ccc([N+](=O)[O-])o2)cc1C |

| RP-LC retention time [s] | Structure (SMILES) |
| --- | --- |
| 619 | CC(=O)Nc1ccc2c(c1)CN(C(=O)c1ccc(C#N)cc1)C(C(=O)N(C)C)C2 (centres undefined) |
| 899 | Cc1ccc(N2CC(c3noc(-c4ccc5ccccc5n4)n3)CC2=O)cc1 (centres undefined) |
| 847 | O=C(Nc1cccc(Br)c1)N1CCC(N2CCN(Cc3ccccc3)C2=O)CC1 |
| 1090 | CCn1c(=O)c2cc(C(=O)Nc3ccc4c(c3)CCC4)nn2c2ccccc21 |
| 683 | O=C(CN1CCN(Cc2cccc(Cl)c2)C1=O)NC1CC1 |
| 846 | Cc1ccc(F)cc1S(=O)(=O)N1CCc2c(c(-c3nnc(-c4ccccc4)o3)nn2C)C1 |
| 669 | COc1cccc(C(=O)NCC(C)(O)C2CC2)c1OC (centres undefined) |
| 879 | COc1ccc2c(c1)C=C(C(=O)NCC(=O)c1cccs1)C=CO2 |
| 655 | O=C(CSc1nc2ccsc2c(=O)n1-c1ccccc1)Nc1ncn[nH]1 |
| 972 | CC1Cc2ccccc2N1Cc1nnc(-c2ccccc2)o1 (centres undefined) |
| 651 | CN1CCN(C(=O)C2CCN(c3nc4ccc(-c5ccsc5)nc4s3)CC2)CC1 |
| 1170 | Cc1ccc(-c2csc(-c3cccn3CC(=O)N(C)Cc3ccco3)n2)cc1 |
| 650 | COCCNC(=O)C(=O)NCCc1cccc(OC)c1 |
| 634 | CCN(Cc1ccc(Cl)cc1)Cc1cc(=O)n2ccc(C)cc2n1 |
| 806 | CCOc1cc(C(=O)NC2CCN(c3cc(-c4ccc(OC)cc4)[nH]n3)C2)cc(OCC)c1OCC (centres undefined) |
| 1100 | Clc1ccccc1-c1noc(Cc2nnc(-c3cccc(Br)c3)o2)n1 |
| 890 | O=C(NC1CCCC1)c1cc2n(n1)CCCN(Cc1ccc(Cl)cc1)C2=O |
| 598 | O=C(NCCN1CCCCCC1)C1CCN(c2nc3cccnc3s2)CC1 |
| 911 | COc1ccc(CCC(=O)N(C)CCc2noc(COc3ccc(OC)cc3)n2)cc1 |
| 718 | CCc1cccc(NS(=O)(=O)c2cc(-c3[nH]ncc3C(=O)N(C)C)oc2C)c1 |
| 583 | COc1ccc(C)cc1NC(=O)Cn1nc(C(=O)N2CCN(C)CC2)cc1C |
| 731 | COc1ccccc1C(=O)Nc1cnc(N2CCCC2)nc1 |

| RP-LC retention time [s] | Structure (SMILES) |
| --- | --- |
| 621 | CCc1nnc2nc(N3CCN(C(=O)COc4ccc(F)cc4)CC3)cc(C)n12 |
| 1320 | O=C(COc1ccccc1)Nc1ccccc1-c1nc2ccccc2s1 |
| 1080 | CCOc1ccc(-c2csc(NC(=O)CCCOc3ccc(OC)cc3)n2)cc1 |
| 730 | CCOC(=O)c1ccc(NC(=O)COc2ccc(-c3nnc4n3CCCC4)cc2)cc1 |
| 624 | Cc1ccc(-c2noc(Cn3ccnc3)n2)cc1 |
| 759 | Cc1nnsc1C(=O)N1CCC(CNC(=O)NC(c2ccccc2)c2ccccc2)CC1 |
| 779 | O=C(NCc1ccco1)c1nc(Nc2ccc(F)cc2)c2ccccc2n1 |
| 1350 | COc1ccc(Cl)cc1C(=O)Nc1nc2c(s1)Cc1c(Br)ccc(OC)c1-2 |
| 1100 | COc1ccc(CN2C=C(C(=O)OCc3cccc(OC)c3)C(C)=NS2(=O)=O)cc1 |
| 766 | O=C(NCc1cc(F)ccc1F)C1CCN(C(=O)c2ncn3c2COC(c2ccccc2)C3)CC1 (centres undefined) |
| 638 | CC(=O)c1ccc(NC(=O)c2[nH]c3cc(C)sc3c2CN(C)C)cc1 |
| 697 | C=CCNC(=O)c1sc(Nc2cccc(C)n2)nc1C |
| 640 | O=S(=O)(c1ccc2c(c1)-c1oncc1CO2)N1CCN(C2CCCCC2)CC1 |
| 908 | CCCN(CC1CCOC1)C(=O)Nc1ccc(C(F)(F)F)cc1 (centres undefined) |
| 673 | O=C(NC1CCCCC1)C1CCN(C(=O)c2cccn2-c2cccnc2)CC1 |
| 683 | CNC(=O)C1CN(C(=O)Nc2cc(OC)cc(OC)c2)CC12CCCC2 (centres undefined) |
| 750 | O=C(O)c1nnn(-c2ccc3c(c2)CCC3)c1-c1ccccn1 |
| 575 | Cc1cc(Cc2ccc(S(=O)(=O)N3CCN(C)CC3)cc2)c(=O)[nH]n1 |
| 669 | O=C(Cn1ncc2c(N3CCN(c4ccccn4)CC3)ncnc21)Nc1ccc(C(F)(F)F)cc1 |
| 696 | CC(C)N1CCN(C(=O)C2CCN(c3nc4ccc(-c5ccccc5)nc4s3)CC2)CC1 |
| 726 | CCOc1ccc(/C=C/C(=O)Nc2nc(-c3ccc(C)cc3)c(C)s2)cc1 |
| 749 | Cc1ccc(NC(=O)C2CCN(C(=O)C3Sc4ccccc4NC3=O)CC2)cc1 (centres undefined) |

| Structure (SMILES) | RP-LC retention time [s] |
| --- | --- |
| CCCCCCN1CCN(c2cccc(Cl)c2)CC1 | 737 |
